The values below come from PubChem BioAssay (NCI).

Values joined by “and” are separate entries in the source; they are usually repeats but may differ in a detail not shown here. Identical values can stand only once.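 Assay format: 96-well plates, 48-hour exposure. GI50 = concentration required for 50% inhibition of growth. TGI: total growth inhibition.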 Some results are limits rather than exact numbers.

Common to all, as to assay: inhibition of tumour cell growth, NCI panel, 48 h
The subject of assay [1] is M19-MEL melanoma.
Assay [2] relates to HOP-62 NSCLC.
For assay [3], the system named is K-562 leukemia.
Assay [4] deals with COLO 205 colon.
For assay [5], the system named is SF-295 CNS.
The subject of assay [6] is SNB-75 CNS.
Assay [7] has as its system SF-268 CNS.
Assay [8] concerns NCI-H522 lung.
Assay [9] concerns NCI/ADR-RES ovarian.

With `CCOC(=O)C(C)(C)Oc1ccc2c(-c3ccc(Cl)cc3)c(-c3ccc(Cl)cc3)c(=O)oc2c1`, the TGI in assay [1], in assay [2], in [3], in assay [4], in assay [5] and in [6] was over 100 µM each time. The TGI in assay [7] is over 100 µM.
As to `COc1cc(/C=C\c2ccc(Br)cc2)cc(OC)c1OC`, the GI50 in [1] is 0.363 µM. The TGI in assay [1] was over 100 µM; in assay [2], 23.9 µM; in assay [3], 36.8 µM; in [4], 1.21 µM; in assay [8], 0.00151 µM; in assay [7], 54 µM.
Turning to `C[C@@H](COCCC(=O)N1CCN(c2ncc(C(F)(F)F)cn2)CC1)Nc1cn[nH]c(=O)c1C(F)(F)F`, the GI50 in assay [2] is 23.6 µM; in [3], 36.9 µM; in assay [4], 98.6 µM; in [9], over 90.5 µM; in assay [8] it was 96.9 µM; in assay [5], 19.5 µM. For the same molecule, the GI50 in [6] is 47.8 µM; in assay [7] it was 42.8 µM. For the same molecule, the TGI in assay [2], in assay [3], in [4], in assay [9], in [8] and in assay [5] was over 100 µM throughout. For the same molecule, the TGI in assay [6] and in assay [7] was over 100 µM throughout.
Regarding `N#C/C(=C\c1c(-c2ccccc2)[nH]c2ccccc12)C(=O)c1ccccc1`, the GI50 in [2] was 16.3 µM; in assay [3] it was over 100 µM; in [4], 5.02 µM; in [9], 3.11 µM; in assay [8], 3.98 µM; in assay [5] it was 3 µM. For the same molecule, the values for the GI50 in assay [6] and in assay [7] were 3.2 µM and 5.73 µM, respectively. The TGI in assay [2] is over 100 µM; in assay [3], over 100 µM; in assay [4] it was over 100 µM; in [9], over 100 µM; in assay [8], 32.9 µM; in [5], over 100 µM. Further, the figures for the TGI in assay [6] and in [7] were 34 µM and 58.9 µM, respectively.
On to `Cc1nc2c(N3CCCC3)nc(N3CCNCC3)nc2nc1NCc1ccccc1`, for which the GI50 in [2] is 5.76 µM; in assay [3], 1.06 µM; in [4], 1.77 µM; in [9] it was 6.84 µM; in [8], 0.869 µM; in assay [5], 5.81 µM. Moreover, the GI50 in assay [6] is 1.85 µM; in assay [7], 5.75 µM. In addition, the TGI in [2] is 11.8 µM and 8.26 µM; in [3], 23.8 µM; in assay [4] it was 7.59 µM and 3.32 µM; in assay [9] it was 13.6 µM and 29 µM; in assay [8] it was 4.56 µM and 4.21 µM; in assay [5], 11.3 µM and 5.02 µM. Also, the TGI was 4.11 µM and 4.69 µM in assay [6]; 12.2 µM and 15.1 µM in assay [7].
Regarding `Cc1ccc2nc(-c3ccc(N)c4ccccc34)[nH]c2c1`, the GI50 in [2] is 0.617 µM; in assay [3], 0.763 µM; in assay [4], 1.07 µM; in assay [9], 0.0835 µM; in assay [8], 0.0958 µM; in assay [5] it was 0.716 µM. Moreover, the GI50 in [6] is 1.38 µM. In addition, the TGI in assay [2] was 4.39 µM; in assay [3], 39.7 µM; in [4] it was 6.31 µM; in assay [9], 3.53 µM; in [8] it was 1.3 µM; in [5], 9.53 µM. The TGI in assay [7] was over 31.6 µM.
In the case of `O=C(CCSc1ccnc2c(C(F)(F)F)cccc12)N/N=C/c1cc(Cl)c(Cl)cc1Cl`, the GI50 was 19.8 µM in assay [2]; 39.6 µM in assay [3]; 24.6 µM in assay [4]; 23 µM in assay [9]; 31.6 µM in assay [8]; 26.4 µM in assay [5]. Also, the results for the GI50 in assay [6] and in [7] were 20 µM and 23.2 µM, respectively. Further, the TGI is 35.8 µM in [2]; over 100 µM in assay [3]; 67.7 µM in assay [4]; 49.7 µM in assay [9]; over 100 µM in [8]; 62.3 µM in assay [5]. The TGI came out at 46.1 µM in [6] and 50.3 µM in assay [7].
For the molecule `O=C(COc1cccc(/C=C2\Oc3ccc4ccccc4c3C2=O)c1)c1ccc(Cl)cc1`, the GI50 was 7.09 µM in assay [2]; 10.8 µM in assay [3]; 33.6 µM in assay [4]; over 100 µM in assay [9]; 6.3 µM in assay [8]; over 100 µM in assay [5]. Further, the GI50 is 29.4 µM in assay [6] and 23.1 µM in [7]. Moreover, the TGI in assay [2] was 32.4 µM; in [3], 25.5 µM; in [4], over 100 µM; in [9] it was over 100 µM; in [8], 23.2 µM; in assay [5] it was over 100 µM. For the same molecule, the results for the TGI in assay [6] and in assay [7] were 99.4 µM and 79.5 µM, respectively.
In the case of `CCOc1nccc2c1nc(-c1nonc1N)n2CC`, the GI50 in assay [2] is over 25 µM; in assay [3] it was over 25 µM; in [4], over 25 µM; in assay [9], over 25 µM; in assay [8], 24.7 µM; in assay [5], over 25 µM. Also, the GI50 was 16.2 µM in [6] and over 25 µM in assay [7]. Also, the TGI in assay [2], in [3], in assay [4], in assay [9], in assay [8] and in assay [5] was over 25 µM throughout. Besides, the TGI in [6] and in assay [7] was over 25 µM in each case.
As to `CC(C)C[C@H](NC(=O)CCn1ccc2ncccc2c1=O)B(O)O`, the GI50 in assay [2] is 21.7 µM; in assay [3], 13.2 µM; in assay [4], 10.3 µM; in [9], over 100 µM; in [8], 4.26 µM; in [5], 11.5 µM. The GI50 in [6] was 14.5 µM; in assay [7], 12.6 µM. Further, the TGI in assay [2] is over 79 µM; in assay [3], over 100 µM; in [4], over 100 µM; in assay [9] it was over 100 µM; in [8], 25 µM; in [5] it was 43.9 µM. Moreover, the TGI in assay [6] was 47.5 µM; in [7] it was over 61.2 µM.
